One assay addresses T1, native TRPV1 (Rattus norvegicus, UniProt O35433).
T1 construct: RTX-induced membrane currents on native TRPV1 in embryonic DRG neurons grown in culture; endogenous in cells; host or cells: primary rat E18 DRG neurons
Put plainly: Whole-cell currents in cultured embryonic DRG neurons (patch clamp). The assay is classed as cell-based. The conditions noted are these: capsazepine 10 μM. The protocol: (§1) Electrophysiology. Whole-cell and single-channel currents were recorded from rat DRG neurons in culture and from Xenopus laevis oocytes injected with rat TRPV1 cRNA. Animals were cared for according to the standards of the National Institutes of Health (NIH). All animal use protocols were approved by Southern Illinois University School of Medicine Animal Care Committee.
Primary DRG neuronal cultures were prepared from embryonic day 18 (E18) rat embryos. Adult pregnant rats were killed with an overdose of isoflurane. DRG were dissected and the cells were dissociated by triturating with a fire-polished glass pipette. Cells were cultured in Neurobasal medium (Life Technologies, Buffalo, N.Y., USA), supplemented with 10% fetal bovine serum (FBS), and grown on poly-D-lysine-coated glass coverslips. Cells were used from 5 to 15 days after plating. Small diameter (<30 μm) rounded neurons were selected for patch-clamp experiments. […] The Giga-seal patch-clamp technique was used to record whole-cell currents. For perforated-patch recordings, the bath solution contained (mM): sodium gluconate 140, KCl 2.5, Hepes 10, MgCl2 1 and ethylene glycol bis(2-aminoethyl ether)-N,N,N′N′-tetraacetic acid (EGTA) 1.5 (pH adjusted to 7.35 with NaOH), and the pipette solution contained (mM): sodium gluconate 130, NaCl 10, KCl 2.5, Hepes 10, MgCl2 1, EGTA 1.5 and 240 μg/ml^−1 amphotericin B (pH adjusted to 7.35 with NaOH). For current-clamp experiments the pipette solution contained (mM): potassium gluconate 130, NaCl 10, MgCl2 1, EGTA 0.2, K2ATP 1 and Hepes 10; pH adjusted to 7.35 with NaOH. Extracellular solution for current- and voltage-clamp experiments contained (mM): NaCl 140, KCl 4, MgCl2 1 and Hepes 10; pH adjusted to 7.35 with NaOH. Currents were recorded using a WPC 100 patch-clamp amplifier (E.S.F. Electronic, Goettingan, Germany). Data were filtered at 10 kHz, digitized (VR-10B, Instrutech Corp., Great Neck, N.Y., USA) and stored on videotapes or directly stored in the computer using a LabView interface. For analysis of whole-cell currents, data were filtered at 1 kHz (−3 db frequency with an 8-pole low-pass Bessel filter, Warner Instruments, LPF-8) and digitized at 2 kHz.
This example tests the activation of whole-cell current in DRG neurons by RTX. We determined the properties of RTX-induced membrane currents on native TRPV1 in embryonic DRG neurons grown in culture. […] Protons were not used to elicit currents because of the presence of acid-sensitive ion channels in these neurons.

Another assay concerns the target T2, rat TRPV1 (Rattus norvegicus, UniProt O35433).
T2 construct: expressed in transfected cells; host or cells: Xenopus laevis oocytes injected with TRPV1 cRNA
Put plainly: Whole-cell currents in Xenopus laevis oocytes expressing TRPV1 (double-electrode voltage clamp). The class given is cell-based. The conditions noted are these: ruthenium red 100 μM; RTX 10 nM repeated application. The protocol:
Rat TRPV1 dcRNA. Cloned rat TRPV1 was obtained from the Julius Lab at the University of California San Francisco. TRPV1 cRNA was obtained using standard techniques known to those of skill in the art.
as §1
Oocytes were obtained by an abdominal incision after anaesthetizing the frog by immersion in a 0.05% solution of 3-aminobenzoic acid ethyl ester (MS222). Animals were killed by a subcutaneous injection of a 2% solution of MS222 according to NIH guidelines. One day after separating the oocytes from the follicular layer, 50-70 nl TRPV1 cRNA was injected using a Drummond Nanoject (Drummond Scientific Co., Broomall, Pa., USA). Oocytes were used for recording from 3 days after the injection. Double-electrode voltage clamp was performed using a Warner amplifier (Warner Instruments, Hamden, Conn., USA). Data were digitized and stored on videotape or directly stored on the computer using a LabView interface (National Instruments, Austin, Tex., USA). Experiments were performed at 21-23° C. Oocytes were placed in a Perspex chamber superfused (5-10 ml min^−1) with Ca^2+-free Ringer solution containing (mM): NaCl 100, KCl 2.5 and Hepes 5; pH adjusted to 7.35 with NaOH. Current-voltage relationships were measured using 1-s voltage ramps from −80 to +80 mV.
This example tests the activation of whole-cell currents in oocytes by RTX. Whole-cell currents were recorded from oocytes heterologously expressing TRPV1. […] Agonist-induced currents are shown after subtracting the leak current in the absence of the agonist. […] In order to quantify this, we calculated the ratio of outward and inward currents. […] PKC activation increases sensitivity as well as TRPV1 translocation. […] (Szallasi et al. 1990b; Caterina et al. 1997; Marshall et al. 2003.)

T1 sequence (O35433 whole entry): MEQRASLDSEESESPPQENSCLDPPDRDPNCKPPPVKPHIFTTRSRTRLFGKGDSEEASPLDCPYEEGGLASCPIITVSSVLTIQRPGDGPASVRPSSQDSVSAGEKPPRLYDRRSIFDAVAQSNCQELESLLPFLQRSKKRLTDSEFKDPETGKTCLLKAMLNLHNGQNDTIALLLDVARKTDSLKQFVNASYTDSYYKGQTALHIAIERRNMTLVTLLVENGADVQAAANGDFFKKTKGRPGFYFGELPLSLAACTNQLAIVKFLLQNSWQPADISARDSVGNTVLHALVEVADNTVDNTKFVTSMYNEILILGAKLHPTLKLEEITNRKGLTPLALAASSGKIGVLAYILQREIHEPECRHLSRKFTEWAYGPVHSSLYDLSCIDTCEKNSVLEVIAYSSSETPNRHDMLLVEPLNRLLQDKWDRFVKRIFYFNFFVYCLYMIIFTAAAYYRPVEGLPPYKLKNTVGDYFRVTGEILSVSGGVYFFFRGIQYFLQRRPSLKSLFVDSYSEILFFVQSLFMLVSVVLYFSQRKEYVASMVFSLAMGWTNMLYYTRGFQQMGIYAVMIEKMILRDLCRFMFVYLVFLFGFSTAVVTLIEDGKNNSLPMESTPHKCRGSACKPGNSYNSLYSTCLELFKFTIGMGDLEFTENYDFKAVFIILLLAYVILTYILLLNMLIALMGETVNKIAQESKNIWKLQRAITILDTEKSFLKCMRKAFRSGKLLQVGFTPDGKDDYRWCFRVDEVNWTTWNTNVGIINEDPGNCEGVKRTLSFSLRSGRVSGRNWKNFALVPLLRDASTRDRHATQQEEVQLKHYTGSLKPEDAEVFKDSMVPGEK
T2 sequence (O35433 whole entry): as above

With `Oc1cc2c(cc1O)CN(C(=S)NCCc1ccc(Cl)cc1)CCC2` [capsazepine], the “block of current induced by capsaicin (1 μM) and RTX (10 nM)” value at native TRPV1 is reported as “completely blocked”. The figures for the “rate of block induced by capsazepine” value at native TRPV1 (RTX-induced (10 nM) currents) and on native TRPV1 (capsaicin-induced (1 μM) currents) were 612.3 ± 219 s and 18.4 ± 2.8 s, respectively.
Regarding `N.N.N.N.N.N.N.N.N.N.N.N.N.N.[Cl-].[Cl-].[Cl-].[Cl-].[Cl-].[Cl-].[O-2].[O-2].[Ru+3].[Ru+3].[Ru+4]` [ruthenium red, reference compound], the “block of RTX-induced current” value at rat TRPV1 is recorded as “readily blocked”.

The values above are taken from US20090209633A1, “Treatment of Pain With Resiniferatoxin and Related Analogs” (priority 2006, published 2009).
